{"source": "patent US20170355705A1", "about": "(GlaxoSmithKline Intellectual Property (No.2) Limited, priority 2014, published 2017)", "molecular_target": "T1, SIRT1 (Homo sapiens, UniProt Q96EB6)", "T1 sequence (Q96EB6 1-747)": "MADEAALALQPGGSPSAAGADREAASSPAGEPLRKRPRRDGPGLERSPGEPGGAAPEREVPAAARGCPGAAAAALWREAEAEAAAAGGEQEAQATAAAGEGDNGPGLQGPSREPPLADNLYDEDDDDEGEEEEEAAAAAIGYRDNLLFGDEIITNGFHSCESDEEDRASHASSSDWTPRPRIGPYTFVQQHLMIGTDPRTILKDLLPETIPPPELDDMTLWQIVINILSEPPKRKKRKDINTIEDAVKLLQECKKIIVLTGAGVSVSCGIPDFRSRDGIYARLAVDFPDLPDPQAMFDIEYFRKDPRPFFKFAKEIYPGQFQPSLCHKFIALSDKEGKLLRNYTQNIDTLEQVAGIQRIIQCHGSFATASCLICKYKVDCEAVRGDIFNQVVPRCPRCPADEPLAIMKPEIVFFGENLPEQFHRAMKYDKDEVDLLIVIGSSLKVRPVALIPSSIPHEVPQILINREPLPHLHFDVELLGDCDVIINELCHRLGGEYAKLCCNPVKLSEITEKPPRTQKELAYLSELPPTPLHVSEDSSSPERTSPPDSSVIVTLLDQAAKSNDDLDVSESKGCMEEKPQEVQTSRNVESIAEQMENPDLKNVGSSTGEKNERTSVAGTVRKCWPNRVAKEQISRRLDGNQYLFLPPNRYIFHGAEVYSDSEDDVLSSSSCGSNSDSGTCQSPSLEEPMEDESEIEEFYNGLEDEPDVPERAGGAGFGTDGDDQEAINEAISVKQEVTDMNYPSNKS", "test": "Trp mass spectrometry assay of SIRT1 activity (EC1.5, percent maximum activation)", "type": "biochemical", "details": "Trp mass spectrometry assay; for TRP Activity (EC1.5): EC1.5 = concentration giving 150% activation of SIRT1", "summary_of_the_method": "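Mass spectrometry read-out (OAADPR formed, or deacetylated Trp peptide) after a 25 min NAD-dependent deacetylation by E. coli-expressed His-SIRT1, stopped with formic acid.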", "key": {"[1]": {"details": "percent maximum activation of SIRT1"}, "[2]": {"details": "0.5 μM peptide substrate, 120 μM βNAD+, 10 nM SIRT1, 25 minutes at 25° C."}}}
{"smiles": "Cc1ccc(-c2cc(C)c3c(n2)N(C(=O)Nc2cccnc2)[C@H]2CCN3C2)cn1", "note": "[Example 13, (4S)-9-methyl-7-(6-methylpyridin-3-yl)-N-(pyridin-3-yl)-3,4-dihydro-1,4-methanopyrido[2,3-b][1,4]diazepine-5(2H)-carboxamide]", "values": [{"measurement": "TRP Activity (EC1.5)", "value": "B (EC1.5 1-25 μM)"}, {"measurement": "TRP MAX RESP (percent maximum fold activation)", "setting": "[1]", "value": "A (Fold activation ≧150%)"}]}
{"smiles": "O=C(Nc1cnccn1)N1c2nc(N3CCOC(C4CC4)C3)ccc2N2CC[C@H]1C2", "note": "(stereo partly drawn)", "values": [{"measurement": "TRP MAX RESP (percent maximum fold activation)", "setting": "[2]", "value": "A (Fold activation ≧150%)"}]}
{"smiles": "O=C(Nc1ncc(OC[C@@H](O)CO)cn1)N1c2nc(-c3cccc(C(F)(F)F)c3)c(Cl)cc2N2CC[C@H]1C2", "note": "[Example 83, (4S)-8-chloro-N-(5-((S)-2,3-dihydroxypropoxy)pyrimidin-2-yl)-7-(3-(trifluoromethyl)phenyl)-3,4-dihydro-1,4-methanopyrido[2,3-b][1,4]diazepine-5(2H)-carboxamide]", "values": [{"measurement": "TRP Activity (EC1.5)", "value": "B (EC1.5 1-25 μM)"}, {"measurement": "TRP MAX RESP (percent maximum fold activation)", "setting": "[1]", "value": "A (Fold activation ≧150%)"}]}
{"smiles": "Nc1ccc(-c2ccc3c(n2)N(C(=O)Nc2ccccn2)[C@H]2CCN3C2)cn1", "note": "[Example 299]", "values": [{"measurement": "TRP MAX RESP (percent maximum fold activation)", "setting": "[2]", "value": "A (Fold activation ≧150%)"}]}
{"smiles": "O=C(Nc1ccnc(OC[C@@H](O)CO)c1)N1c2nc(-c3cncc(C(F)(F)F)c3)c(Cl)cc2N2CC[C@H]1C2", "note": "[Example 109, (4S)-8-chloro-N-(2-((S)-2,3-dihydroxypropoxy)pyridin-4-yl)-7-(5-(trifluoromethyl)pyridin-3-yl)-3,4-dihydro-1,4-methanopyrido[2,3-b][1,4]diazepine-5(2H)-carboxamide]", "values": [{"measurement": "TRP Activity (EC1.5)", "value": "B (EC1.5 1-25 μM)"}, {"measurement": "TRP MAX RESP (percent maximum fold activation)", "setting": "[1]", "value": "A (Fold activation ≧150%)"}]}
{"smiles": "O=C(Nc1ccc(OC[C@H](O)CO)cn1)N1c2nc(-c3cccc(C(F)(F)F)c3)c(Cl)cc2N2CC[C@H]1C2", "note": "[Example 76, (4S)-8-chloro-N-(5-((R)-2,3-dihydroxypropoxy)pyridin-2-yl)-7-(3-(trifluoromethyl)phenyl)-3,4-dihydro-1,4-methanopyrido[2,3-b][1,4]diazepine-5(2H)-carboxamide]", "values": [{"measurement": "TRP Activity (EC1.5)", "value": "A (EC1.5<1 μM)"}, {"measurement": "TRP MAX RESP (percent maximum fold activation)", "setting": "[1]", "value": "A (Fold activation ≧150%)"}]}
{"smiles": "O=C(Nc1cncc(OC[C@@H](O)CO)c1)N1c2nc(-c3cccc(C(F)(F)F)c3)c(Cl)cc2N2CC[C@H]1C2", "note": "[Example 78, (4S)-8-chloro-N-(5-((S)-2,3-dihydroxypropoxy)pyridin-3-yl)-7-(3-(trifluoromethyl)phenyl)-3,4-dihydro-1,4-methanopyrido[2,3-b][1,4]diazepine-5(2H)-carboxamide]", "values": [{"measurement": "TRP Activity (EC1.5)", "value": "A (EC1.5<1 μM)"}, {"measurement": "TRP MAX RESP (percent maximum fold activation)", "setting": "[1]", "value": "A (Fold activation ≧150%)"}]}
{"smiles": "Cc1nn(C)cc1-c1ccnc(NC(=O)N2c3nc(-c4ccnc(C(F)(F)F)c4)ccc3N3CC[C@H]2C3)c1", "note": "[Example 324]", "values": [{"measurement": "TRP MAX RESP (percent maximum fold activation)", "setting": "[2]", "value": "A (Fold activation ≧150%)"}]}
{"smiles": "Cc1cc(-c2nc3c(cc2Cl)N2CC[C@@H](C2)N3C(=O)Nc2cnc(OC[C@H](O)CO)cn2)ccn1", "note": "[Example 29, (4S)-8-chloro-N-(5-((R)-2,3-dihydroxypropoxy)pyrazin-2-yl)-7-(2-methylpyridin-4-yl)-3,4-dihydro-1,4-methanopyrido[2,3-b][1,4]diazepine-5(2H)-carboxamide]", "values": [{"measurement": "TRP Activity (EC1.5)", "value": "B (EC1.5 1-25 μM)"}, {"measurement": "TRP MAX RESP (percent maximum fold activation)", "setting": "[1]", "value": "A (Fold activation ≧150%)"}]}
{"smiles": "O=C(Nc1ncc(OC[C@H](O)CO)cn1)N1c2nc(-c3cccc(C(F)(F)F)c3)c(Cl)cc2N2CC[C@H]1C2", "note": "[Example 82, (4S)-8-chloro-N-(5-((R)-2,3-dihydroxypropoxy)pyrimidin-2-yl)-7-(3-(trifluoromethyl)phenyl)-3,4-dihydro-1,4-methanopyrido[2,3-b][1,4]diazepine-5(2H)-carboxamide]", "values": [{"measurement": "TRP Activity (EC1.5)", "value": "B (EC1.5 1-25 μM)"}, {"measurement": "TRP MAX RESP (percent maximum fold activation)", "setting": "[1]", "value": "A (Fold activation ≧150%)"}]}
{"smiles": "Cc1cc2c(nc1-c1cccc(C(F)(F)F)c1)N(C(=O)Nc1ccnc(OC[C@@H](O)CO)c1)[C@H]1CCN2C1", "note": "[Example 101, (4S)-N-(2-((S)-2,3-dihydroxypropoxy)pyridin-4-yl)-8-methyl-7-(3-(trifluoromethyl)phenyl)-3,4-dihydro-1,4-methanopyrido[2,3-b][1,4]diazepine-5(2H)-carboxamide]", "values": [{"measurement": "TRP Activity (EC1.5)", "value": "A (EC1.5<1 μM)"}, {"measurement": "TRP MAX RESP (percent maximum fold activation)", "setting": "[1]", "value": "A (Fold activation ≧150%)"}]}
{"smiles": "Cc1cc(-c2ccc3c(n2)N(C(=O)Nc2cc(-c4cnc(C)s4)ccn2)[C@H]2CCN3C2)ccn1", "note": "[Example 295]", "values": [{"measurement": "TRP MAX RESP (percent maximum fold activation)", "setting": "[2]", "value": "A (Fold activation ≧150%)"}]}
{"smiles": "CCn1cc(-c2nc3c(cc2Cl)N2CC[C@@H](C2)N3C(=O)Nc2ccnc(OC[C@H](O)CO)c2)cn1", "note": "[Example 90, (4S)-8-chloro-N-(2-((R)-2,3-dihydroxypropoxy)pyridin-4-yl)-7-(1-ethyl-1H-pyrazol-4-yl)-3,4-dihydro-1,4-methanopyrido[2,3-b][1,4]diazepine-5(2H)-carboxamide]", "values": [{"measurement": "TRP Activity (EC1.5)", "value": "B (EC1.5 1-25 μM)"}, {"measurement": "TRP MAX RESP (percent maximum fold activation)", "setting": "[1]", "value": "A (Fold activation ≧150%)"}]}
{"smiles": "O=C(Nc1cnccn1)N1c2nc(-c3ccc(OC(F)F)nc3)ccc2N2CC[C@H]1C2", "note": "[Example 226, (4S)-7-(6-(difluoromethoxy)pyridin-3-yl)-N-(pyrazin-2-yl)-3,4-dihydro-1,4-methanopyrido[2,3-b][1,4]diazepine-5(2H)-carboxamide]", "values": [{"measurement": "TRP Activity (EC1.5, concentration of test compound that results in 150% activation of SIRT1)", "setting": "[2]", "value": "B (EC1.5 1-25 μM)"}, {"measurement": "TRP MAX RESP (percent maximum fold activation)", "setting": "[2]", "value": "A (Fold activation ≧150%)"}]}
{"smiles": "Cc1cc(-c2nc3c(cc2Cl)N2CC[C@@H](C2)N3C(=O)Nc2cnc(OC[C@@H](O)CO)cn2)ccn1", "note": "[Example 40, (4S)-8-chloro-N-(5-((S)-2,3-dihydroxypropoxy)pyrazin-2-yl)-7-(2-methylpyridin-4-yl)-3,4-dihydro-1,4-methanopyrido[2,3-b][1,4]diazepine-5(2H)-carboxamide]", "values": [{"measurement": "TRP Activity (EC1.5)", "value": "B (EC1.5 1-25 μM)"}, {"measurement": "TRP MAX RESP (percent maximum fold activation)", "setting": "[1]", "value": "A (Fold activation ≧150%)"}]}
{"smiles": "Cc1cc(-c2ccc3c(n2)N(C(=O)Nc2nccc4[nH]cnc24)[C@H]2CCN3C2)ccn1", "note": "[Example 145, (4S)-N-(1H-imidazo[4,5-c]pyridin-4-yl)-7-(2-methylpyridin-4-yl)-3,4-dihydro-1,4-methanopyrido[2,3-b][1,4]diazepine-5(2H)-carboxamide]", "values": [{"measurement": "TRP Activity (EC1.5)", "value": "B (EC1.5 1-25 μM)"}, {"measurement": "TRP MAX RESP (percent maximum fold activation)", "setting": "[1]", "value": "A (Fold activation ≧150%)"}]}
{"smiles": "O=C(Nc1cccc(OC[C@H](O)CO)n1)N1c2nc(-c3cccc(C(F)(F)F)c3)c(Cl)cc2N2CC[C@H]1C2", "note": "[Example 56, (4S)-8-chloro-N-(6-((R)-2,3-dihydroxypropoxy)pyridin-2-yl)-7-(3-(trifluoromethyl)phenyl)-3,4-dihydro-1,4-methanopyrido[2,3-b][1,4]diazepine-5(2H)-carboxamide]", "values": [{"measurement": "TRP Activity (EC1.5)", "value": "A (EC1.5<1 μM)"}, {"measurement": "TRP MAX RESP (percent maximum fold activation)", "setting": "[1]", "value": "A (Fold activation ≧150%)"}]}
{"smiles": "O=C(Nc1ccnc(OC[C@H](O)CO)c1)N1c2nc(-c3cnn(C4CC4)c3)c(Cl)cc2N2CC[C@H]1C2", "note": "[Example 100, (4S)-8-chloro-7-(1-cyclopropyl-1H-pyrazol-4-yl)-N-(2-((R)-2,3-dihydroxypropoxy)pyridin-4-yl)-3,4-dihydro-1,4-methanopyrido[2,3-b][1,4]diazepine-5(2H)-carboxamide]", "values": [{"measurement": "TRP Activity (EC1.5)", "value": "B (EC1.5 1-25 μM)"}, {"measurement": "TRP MAX RESP (percent maximum fold activation)", "setting": "[1]", "value": "A (Fold activation ≧150%)"}]}
{"smiles": "Cc1cc(-c2ccc3c(n2)N(C(=O)Nc2cncc(C4CC4)n2)[C@H]2CCN3C2)ccn1", "note": "[Example 166, (4S)-N-(6-cyclopropylpyrazin-2-yl)-7-(2-methylpyridin-4-yl)-3,4-dihydro-1,4-methanopyrido[2,3-b][1,4]diazepine-5(2H)-carboxamide]", "values": [{"measurement": "TRP Activity (EC1.5)", "value": "A (EC1.5<1 μM)"}, {"measurement": "TRP MAX RESP (percent maximum fold activation)", "setting": "[1]", "value": "A (Fold activation ≧150%)"}]}
{"smiles": "O=C(Nc1cnccn1)N1c2nc(-c3ccc(CO)nc3)ccc2N2CC[C@H]1C2", "note": "[Example 147, (4S)-7-(6-(hydroxymethyl)pyridin-3-yl)-N-(pyrazin-2-yl)-3,4-dihydro-1,4-methanopyrido[2,3-b][1,4]diazepine-5(2H)-carboxamide]", "values": [{"measurement": "TRP Activity (EC1.5)", "value": "B (EC1.5 1-25 μM)"}, {"measurement": "TRP MAX RESP (percent maximum fold activation)", "setting": "[1]", "value": "A (Fold activation ≧150%)"}]}
{"smiles": "Cc1cc(-c2ccc3c(n2)N(C(=O)Nc2cncc(OC(C)C)n2)[C@H]2CCN3C2)ccn1", "note": "[Example 221, (4S)-N-(6-isopropoxypyrazin-2-yl)-7-(2-methylpyridin-4-yl)-3,4-dihydro-1,4-methanopyrido[2,3-b][1,4]diazepine-5(2H)-carboxamide]", "values": [{"measurement": "TRP Activity (EC1.5, concentration of test compound that results in 150% activation of SIRT1)", "setting": "[2]", "value": "A (EC1.5<1 μM)"}, {"measurement": "TRP MAX RESP (percent maximum fold activation)", "setting": "[2]", "value": "A (Fold activation ≧150%)"}]}
{"smiles": "Cc1cc(-c2ccc3c(n2)N(C(=O)Nc2cc(N4C[C@@H](C)O[C@@H](C)C4)ccn2)[C@H]2CCN3C2)ccn1", "note": "[Example 356]", "values": [{"measurement": "TRP MAX RESP (percent maximum fold activation)", "setting": "[2]", "value": "A (Fold activation ≧150%)"}]}
